According to US5985302A, “Method for deactivating a contaminant” (priority 1998, dated 1999):
Like-named read-outs stand apart in the source and are kept apart here.

Experiments:
[1] = tested on: HIV infected cells (H9/IIIB); test: Towlette swabs for work surfaces contaminated by HIV infected cells; set-up: species or system HIV; human cells; conditions: 5% impregnated towlette; stainless steel surface
Excerpt: Test Swabs: 17×23 cm nylon-reinforced 4 ply, #34770, each weighing approximately 2.6 gram Terri® Wipers, manufactured by Kimberly Clark, Neenah, Wis.
Bleach: 4% by weight aqueous solution of calcium hypochlorite.
Sodium thiosulfate: 5% by weight aqueous solution, supplied by Tarijian Labs, Inc., Queens Village, N.Y.
HIV infected Cells: H9/IIIB cells (10^6 cells/ml of complete culture medium, RPI in 10% fetal calf serum [FCS]), as described above in Example 6.
A first fresh, dry test swab or towlette is impregnated with a 4.0% by weight aqueous solution of calcium hypochlorite by applying 5 (five) ml. of the calcium hypochlorite solution to the test swab. A second fresh, dry test swab or towlette is impregnated with a 5% by weight aqueous solution of sodium thiosulfate by applying 5 (five) ml. of the sodium thiosulfate solution to the test swab.
A small amount of the HIV infected cells are placed on a stainless steel work surface.
The sodium thiosulfate impregnated towlette is then wiped, or swabbed, over the work surface containing the inactivated virus.

[2] = Towlette swabs for work surfaces contaminated by doxorubicin; conditions: 5% impregnated towlette; stainless steel surface
Excerpt: The Experimental Materials used are as described above in Example 8. A first fresh, dry test swab or towlette is impregnated with a 5.25% by weight aqueous solution of sodium hypochlorite by applying 5 (five) ml. of the sodium hypochlorite solution to the test swab. A second fresh, dry test swab or towlette is impregnated with a 5% by weight aqueous solution of sodium thiosulfate by applying 5 (five) ml. of the sodium thiosulfate solution to the test swab.
Doxorubicin is placed on a stainless steel work surface, which should cause a red stain to appear.
The sodium thiosulfate impregnated towlette is then wiped, or swabbed, over the work surface containing the chemically inactivated doxorubicin spill.

[3] = tested on: HIV-infected CD4+ human cell line (H9/IIIB); test: HIV inactivation by dilute calcium hypochlorite; format: cell-based, HIV; human cells
Protocol: The ability of dilute calcium hypochlorite to inactivate HIV was tested against an HIV-infected CD4+ human cell line (H9/IIIB).
H9/IIIB cells (10^6 cells/ml of complete culture medium, RPMI in 10% fetal calf serum [FCS]) were exposed to an aqueous solution containing 4% by weight of calcium hypochlorite for 15 minutes; the volumetric ratio of culture medium to calcium hypochlorite solution was 1:1, or a 50% dilution of a 4% dilute calcium hypochlorite solution in culture medium containing 10% serum. The cells were subsequently washed three times with 10% FCS RPMI and plated in fresh medium and allowed to incubate at 37° C. for three days, to allow any residual live virus and/or virus-infected cells to develop after the brief exposure to the dilute calcium hypochlorite solution. The cells were again pelleted and exposed to lytic CD4+ human cell line (MOT) as a target for any viable virus. The target MOT cells will lyse when infected with HIV. These cells were then allowed to incubate an additional four days. Next, the cells were incubated with human anti-HIV antibody (prepared in accordance the procedures described in Lake DA, Sugano T, Matsumoto Y, et al: "A Hybridoma Producing Monoclonal Antibody Specific for Glycoprotein 120 kDa of Human Immunodeficiency Virus (HIV-1), Life Sciences 45:iii-x, 1989.) for one hour, and then washed and incubated with fluorescent labeled goat anti-human IgG for one hour. The method for HIV detection by formaldehyde fixation and flow cytometry was in accordance with the method described in Lifson JD, Sasaki DT, Engleman EG: "Utility of Formaldehyde Fixation for Flow Cytometry and Inactivation of the AIDS Associated Retrovirus", J Immunological Methods 86:143-149, 1986.
As a positive control, the above procedure was followed with HIV-infected H9/IIIB cells exposed only to culture medium rather than to culture medium and calcium hypochlorite. As a negative control, the above procedure was followed with uninfected H9 cells exposed to an aqueous solution containing 4% by weight of calcium hypochlorite.

[4] = tested on: Salmonella Typhimurium TA 98 strain; test: Mutagenic activity (revertant colonies) of DNA intercalators treated with calcium hypochlorite; format: cell-based; conditions: for No. colonies of revertant organisms: drug 10 ng/ml
Protocol: Solutions of DNA intercalators (doxorubicin, daunorubicin and mitoxantrone)in concentrations of 10 ng/ml D5W were applied in 5 ml quantities to separate petri dishes. Two different concentrations of calcium hypochlorite, 40 g/l and 423 g/l, were applied in 1 ml. volumes separately to the anticancer drug solutions in each petri dish for a period of one minute. After thorough mixing and neutralization of the pH to 7.4 using HCl, 1 ml of each petri dish solution was applied to 35 mm petri dishes containing cultures of Salmonella Typhimurium TA 98 strain. The petri dishes containing bacteria plus overlaid mixtures of calcium hypochlorite/anticancer drug and control plates with bacteria alone were then incubated at 37° C. for 24 hours.

[5] = Deactivation and decolorization of anticancer drugs by hypochlorite; conditions: calcium or sodium hypochlorite
Excerpt: In accordance with the invention, HIV infected blood, or any of a number of active anticancer drugs, can be inactivated by applying thereto an aqueous solution containing 4-40% by weight of calcium or sodium hypochlorite. HIV infected blood, as well as any anticancer agent which can undergo oxidative or alkaline degradation can be deactivated in accordance with the method of the invention. Among the anticancer agents which can be effectively deactivated are the following:
In addition to chemically deactivating the anti-cancer drugs, the method of the invention is also effective to decolorize those, e.g., the anthracyclines, doxorubicin and daunorubicin, which are naturally red in color, and the alkylating agent mitomycin C, which is naturally purple in color, which stain fabrics which they contact. The method of the invention renders the naturally colored anticancer drugs colorless, thus preventing permanent damage to clothes or other materials which come in contact with the drugs.
It has also been determined that HIV infected blood and most anticancer drugs can be deactivated by application of a solution of calcium or sodium hypochlorite in water at a concentration of 4% by weight.

[6] = format: physicochemical; conditions: for Concentration by fluorescence (chromophore recovery): 10 ng on column
Protocol: Treatment of the drugs with calcium hypochlorite was carried out as described in Example 1. One ml aliquots of doxorubicin, daunorubicin and mitoxantrone, separately, were taken from the petri dishes after calcium hypochlorite exposure at two different concentrations for a period of one minute. Ten (10) ng of each of the anticancer drug (based on the final concentration resulting from the addition of calcium hypochlorite to the separate petri dishes containing each anticancer agent) was added to a high performance liquid chromatography column and standard HPLC assays were carried out. A reverse phase C-18 bonded phase HPLC procedure was used. The mobile phase consisted of 30:70 CH3 CN:ammonium acetate at a flow rate of 2 ml/min., using a Varian model 5020 HPLC unit. The anticancer drugs were detected using excitation at 480 nm and emission at 550 nm with a Schoeffel model FS 970 fluoroescence detector.

[7] = calcium hypochlorite 40 g/l, one minute
[8] = calcium hypochlorite 423 g/l, one minute
[9] = no calcium hypochlorite, 37° C., 24 hours
[10] = calcium hypochlorite 0 (control)
[11] = lower concentration of calcium hypochlorite (40 g/l), one minute

O=S([O-])([O-])=S.[Na+].[Na+] [sodium thiosulfate]
neutralization of residual calcium hypochlorite [1]: should neutralize any residual calcium hypochlorite
neutralization of residual sodium hypochlorite [2]: should neutralize any residual sodium hypochlorite

[Ca+2].[O-]Cl.[O-]Cl [calcium hypochlorite]
HIV / infected cell inactivation ([3]; 4% by weight, 1:1 volumetric ratio, 15 minutes): completely inactivates
viable HIV present ([3]; after four day incubation): no viable HIV varions present
HIV antibody binding ([3]; antibody specific to the 120 kDa viral glycoprotein): no HIV antibody binding is detectable
signs of HIV infection under fluorescent microscope ([3]; fluorescent anti-HIV antibody): no signs of HIV infection
lysis of cells ([3]; non-infected and HIV infected cells, n=4 each): completely lysed
No. colonies of revertant organisms, control without drug ([4]; calcium hypochlorite 40 g/l): 0 colonies
No. colonies of revertant organisms, control without drug ([4]; calcium hypochlorite 423 g/l): 0 colonies

O=C1c2c(O)ccc(O)c2C(=O)c2c(NCCNCCO)ccc(NCCNCCO)c21 [Mitoxantrone]
hypochlorite concentration that may be required for substantially complete deactivation [5]: up to 40 % by weight
No. colonies of revertant organisms [4, 7]: 44 colonies
No. colonies of revertant organisms [4, 8]: 0 colonies
No. colonies of revertant organisms [4, 9]: 164 colonies
bacterial revertant growth ([4]; lower concentration of calcium hypochlorite (40 g/l)): associated with bacterial revertant growth
Concentration by fluorescence (chromophore recovery) [6, 10]: 10.1 ng
Concentration by fluorescence (chromophore recovery) ([6]; calcium hypochlorite 40 g/l): 3.8 ng
Concentration by fluorescence (chromophore recovery) ([6]; calcium hypochlorite 423 g/l): 0 ng
degradation ([6]; lower concentration of calcium hypochlorite (40 g/l), one minute, 1 min): approximately 60%

COc1cccc2c1C(=O)c1c(O)c3c(c(O)c1C2=O)C[C@@](O)(C(=O)CO)C[C@@H]3O[C@H]1C[C@H](N)[C@H](O)[C@H](C)O1 [Doxorubicin]
No. colonies of revertant organisms [4, 7]: 0 colonies
No. colonies of revertant organisms [4, 8]: 0 colonies
No. colonies of revertant organisms [4, 9]: 257 colonies
Concentration by fluorescence (chromophore recovery) [6, 10]: 9.7 ng
Concentration by fluorescence (chromophore recovery) ([6]; calcium hypochlorite 40 g/l): 0 ng
Concentration by fluorescence (chromophore recovery) ([6]; calcium hypochlorite 423 g/l): 0 ng
chemical evidence of drug [6, 11]: no chemical evidence

COc1cccc2c1C(=O)c1c(O)c3c(c(O)c1C2=O)C[C@@](O)(C(C)=O)C[C@@H]3O[C@H]1C[C@H](N)[C@H](O)[C@H](C)O1 [Daunorubicin]
No. colonies of revertant organisms [4, 7]: 0 colonies
No. colonies of revertant organisms [4, 8]: 0 colonies
No. colonies of revertant organisms [4, 9]: 365 colonies
Concentration by fluorescence (chromophore recovery) [6, 10]: 9.8 ng
Concentration by fluorescence (chromophore recovery) ([6]; calcium hypochlorite 40 g/l): 0 ng
Concentration by fluorescence (chromophore recovery) ([6]; calcium hypochlorite 423 g/l): 0 ng
chemical evidence of drug [6, 11]: no chemical evidence
